Values joined by “and” are separate entries in the source; they are usually repeats but may differ in a detail not shown here. Identical values can stand only once. Like-named read-outs stand apart in the source and are kept apart here.

Assay [1] concerns the target T1, cluster 2a type streptokinase (Streptococcus pyogenes, UniProt A0A288R465). The assay is described as follows: biochemical. Type of assay: biochemical, group A streptococcal strain A614. The settings on record: supernatant-based; for IC50 / fold lower concentration for the same range of inhibition as oleic and linolenic acid: cluster 2a; for fold lower IC50-values than TXA and EACA: cluster 2a type streptokinase.

Another assay has as its system S. pyogenes strain AP1. The assay is described as follows: Clotting assay, escape of streptococci from clot (cluster 2a type streptokinase). The assay is classed as cell-based. The settings on record: 30 µg/ml, after 4 h, p < 0.05. The method, then:
(§1) To assess whether LA and PA influence the entrapment of bacteria within clots, a 50 ml overnight culture (THY medium) of the S. pyogenes strains AP1 or A666 was centrifuged at 4332 × g for 10 min. […] For clot induction, 100 µl citrate plasma, 100 µl of the respective bacterial suspension and 50 µl thrombin-reagent (Haemochrom Diagnostica) were used. […] Then clots were left untreated (treated with sodium citrate buffer only) or were treated with LA or PA (diluted in sodium citrate buffer). For clots formed with S. pyogenes strain A666, a final concentration of 60 µg/ml was used for both, LA and PA. For those formed with S. pyogenes strain AP1, a final concentration of 30 µg/ml was used. 50 µl of the supernatant of each sample were plated onto blood agar plates in serial dilutions at 0, 2 and 4 h after clot induction and incubated at 37 °C overnight. Colonies were counted the following day to assess the number of bacteria which had escaped the clot. […] Two independent experiments were performed. Standard deviations were calculated accordingly. Citrate plasma was obtained from healthy volunteers who gave their informed consent.

Assay [2] deals with cluster 2b type streptokinase (Streptococcus pyogenes, UniProt P10520). The arrangement: species or system group A streptococcal strain A314. The settings on record: cell-based; for IC50: cluster 2b; for fold lower IC50 compared to TXA and EACA: streptokinase cluster type 2b. The procedure: Then inhibitory compounds (LA, PA, oleic, myristic, stearic, palmitic, arachidonic, arachidic, linolenic acid, TXA or EACA) were added. Stocks of LA and PA were prepared in methanol and then diluted in PBS. Stocks of arachidic, oleic, arachidonic, myristic, palmitic, stearic and linolenic acid were prepared in 60% DMSO/PBS and then diluted in PBS. The untreated control received the same amount of PBS as in case of TXA and EACA as control or the same amount of methanol diluted in PBS as in case of LA and PA, respectively, or the same amount of DMSO diluted in PBS as in case of the other commercially available fatty acids. […] The assay was incubated at 37 °C and measured at the beginning of the reaction and then every hour at 405 nm after 3 sec of shaking on a Tecan Sunrise ELISAReader using Magellan software. Each experiment was repeated three times. IC50 values were calculated using Microsoft® Excel software.

The subject of the next assay is S. pyogenes strain A666. Put plainly: Clotting assay, escape of streptococci from clot (cluster 2b type streptokinase). The assay is classed as cell-based. The conditions noted are these: 60 µg/ml, after 4 h, p < 0.05. The procedure:
as §1

Assay [3] concerns the target T1, cluster 2a type streptokinase. The arrangement: species or system group A streptococcal strain A614. The conditions noted are these: cell-based; for fold lower IC50 compared to TXA and EACA: streptokinase cluster type 2a. The procedure: The pellet from a mid-log phase culture of the strain A614 (cluster 2a type) or A314 (cluster 2b type) was washed twice with PBS and bacteria were adjusted to an OD600 of 1.0 in HEPES-buffer (10 mM HEPES, 150 mM NaCl, 0.01% Tween 20, pH 7.4). 90 µl of bacterial cells, plasminogen (final concentration 6.7 µg/ml per well) and fibrinogen (final concentration 1 µM per well) were pre-mixed. Then inhibitory compounds (LA, PA, oleic, myristic, stearic, palmitic, arachidonic, arachidic, linolenic acid, TXA or EACA) were added. Stocks of LA and PA were prepared in methanol and then diluted in PBS. Stocks of arachidic, oleic, arachidonic, myristic, palmitic, stearic and linolenic acid were prepared in 60% DMSO/PBS and then diluted in PBS. The untreated control received the same amount of PBS as in case of TXA and EACA as control or the same amount of methanol diluted in PBS as in case of LA and PA, respectively, or the same amount of DMSO diluted in PBS as in case of the other commercially available fatty acids. Then 50 µl of the respective supernatant (supernatant from the strain A614 if cells from A614 were used, supernatant from the strain A314 were used in case of cells from the GAS strain A314) and 3.75 µl 10 mM S-2251 (Chromogenix) were added. The assay was incubated at 37 °C and measured at the beginning of the reaction and then every hour at 405 nm after 3 sec of shaking on a Tecan Sunrise ELISAReader using Magellan software. Each experiment was repeated three times. IC50 values were calculated using Microsoft® Excel software.

Another assay concerns the target T2, staphylokinase (Staphylococcus aureus, UniProt P68801).
T2 construct: purchased Cedarlane Labs
Put plainly: Plasminogen assay with staphylokinase as activator of plasminogen. Type of assay: biochemical. The settings on record: staphylokinase 2 µg/ml; compared to untreated control. The method, then: Supernatant of an overnight culture of the GAS strain A614 was used as this strain secretes a cluster 2a type streptokinase. 75 µl of the culture supernatant was added to the wells of a 96well plate followed by 69 µl PBS, 5 µl S-2251 (10 mM stock solution, chromogenic substrate for the detection of plasmin, Chromogenix) and 1 µl plasminogen (1 mg/ml stock solution, Biopur or Sigma). 1 µl of each myxobacterial extract or each myxobacterial compound (dissolved in methanol, 1 mM) was added to test possible inhibition of plasminogen activation. The assay was run at 37 °C. The absorption was measured at the beginning of the reaction and then every hour at 405 nm after 3 sec of shaking on a Tecan Sunrise ELISA Reader using Magellan software. The reaction was finished when untreated samples had reached an OD405nm of about 1.
The assay was conducted as described above using staphylokinase (Cedarlane Labs) as an activator of plasminogen (staphylokinase final concentration 2 µg/ml per well in 75 µl of PBS. Stocks of LA and PA were prepared in methanol and then diluted in PBS. The untreated control received the same amount of methanol diluted in PBS as in case of treatment with PA or LA. Each experiment was repeated three times.

T2 sequence (P68801 28-163): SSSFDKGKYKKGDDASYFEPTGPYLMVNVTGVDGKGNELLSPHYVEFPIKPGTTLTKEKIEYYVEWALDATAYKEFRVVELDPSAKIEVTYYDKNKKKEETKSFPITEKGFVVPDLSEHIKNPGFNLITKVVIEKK

Broadly, the IC50 is the concentration at which inhibition is half-maximal. Turning to `CCCCC/C=C\C/C=C\CCCCCCCC(=O)O` [LA, linoleic acid], in assay [1], the IC50 was 156 µM and 149 µM; the “fold lower concentration for the same range of inhibition as oleic and linolenic acid” value is 3–4 fold; the “fold lower IC50-values than TXA and EACA” value was 500–1000 fold. In addition, in the assay on S. pyogenes strain AP1, the “GAS escaped from the clot compared to the untreated clot” value is on record as “significantly lower amount of GAS escaped”. Further, in assay [2], the IC50 was 64.5 µM and 61.7 µM; the “fold lower IC50 compared to TXA and EACA” value worked out at 1000 fold. Also, in the assay with S. pyogenes strain A666, the “GAS escaped from the clot compared to the untreated clot” value is “significantly lower amount of GAS escaped”. In addition, the “fold lower IC50 compared to TXA and EACA” value in assay [3] is given as 250 fold. Also, the “inhibition of staphylokinase-mediated plasminogen activation” value against staphylokinase is “not inhibited”.

For `CCCCCC/C=C\CCCCCCCC(=O)O` [PA, palmitoleic acid], the IC50 in assay [1] was 91.6 µM and 105 µM; in assay [2] it was 61.1 µM and 63.3 µM; in assay [3] (cluster 2a), 359 µM and 471 µM. Further, the “fold lower concentration for the same range of inhibition as oleic and linolenic acid” value in assay [1] is 3–4 fold. In addition, the “fold lower IC50-values than TXA and EACA” value in assay [1] is 500–1000 fold. Further, the “GAS escaped from the clot compared to the untreated clot” value in the assay with S. pyogenes strain AP1 and in the assay with S. pyogenes strain A666 was “significantly lower amount of GAS escaped” throughout. The entries for the “fold lower IC50 compared to TXA and EACA” value in assay [2] and in assay [3] were 1000 fold and 250 fold, respectively. The “inhibition of staphylokinase-mediated plasminogen activation” value against staphylokinase is “not inhibited”.

The values are drawn from article PMC5603603, “Linoleic and palmitoleic acid block streptokinase-mediated plasminogen activation and reduce severity of invasive group A streptococcal infection” (Scientific Reports, 2017).
